These results are taken from US7678808B2, “5 HT receptor mediated neurogenesis” (BrainCells, Inc., priority 2006, dated 2010).

“Also recorded” adds a separate entry of the source.

The test system of series [1] is human neural stem cells (hNSCs). The experiment in a line: Astrocyte differentiation of hNSCs (GFAP staining). The class given is cell-based. As for the experimental part:
Experiments were carried out as described in Example 1, except the positive control for astrocyte differentiation contained mitogen-free test media with a positive control, and cells were stained with GFAP antibody.
Experiments were carried out as described in Example 2, except the positive control for astrocyte differentiation contained mitogen-free test media with a different positive control.
(§1) Human neural stem cells (hNSCs) were isolated and grown in monolayer culture, plated, treated with varying concentrations of buspirone in the presence or absence of the melatonin agonist melatonin, and stained with TUJ-1 antibody for the detection of neuronal differentiation or GFAP antibody for the detection of astrocyte differentiation, as described above. Mitogen-free test media with a positive control for neuronal differentiation was used along with basal media without growth factors as a negative control.

Series [2] in a line: Rat body weight during chronic dosing. As to conditions: buspirone 0.5 and 5.0 mg/kg i.p., 1x per day for 28 days.
In series [3] the test system is Male F344 rats. Nature of the series: Novel Object Recognition (NOR) cognition assay. The class given is in vivo, rat. As to conditions: buspirone 0.5 and 5.0 mg/kg i.p., 1x per day for 28 days. An excerpt: The apparatus consisted of an open field (45×45×50 cm high) made of polycarbonate. Triplicate copies were used of the objects to be discriminated. Care was taken to ensure that the pair of objects tested were made from the same material so that they could not be distinguished readily by olfactory cues although they had very different appearances.
Each test session consisted of two phases. In the initial familiarization phase, two identical objects (A1 and A2) were placed in the far corners of the box arena. A rat was then placed in the middle of the arena and allowed 15 minutes to explore both objects. Exploration of an object was defined as directing the nose to the object at a distance of less than 2 cm and/or touching it with the nose. After a delay of 48-hours the rat was re-introduced to the arena (“test phase”). The box now contained a third identical copy of the familiar object (A3) and a new object (B). These were placed in the same locations as the sample stimuli, whereby the position (left or right) of the novel object in the test phase was balanced between rats. For half the rats, object A was the sample and object B was the novel alternative. The test phase was 15 minutes in duration, with the first 30 seconds of object interaction used to determine preference scores. Any animal with less than 15 seconds of object exploration were excluded from analysis.

For series [4], the system named is human neural stem cells (hNSCs). The experiment in a line: Neuronal differentiation of human neural stem cells (TUJ-1 staining). Particulars: agent alone; hNSC; data as % of neuronal positive control, basal media subtracted. It counts as cell-based.
Description: Mitogen-free test media with a positive control was used for neuronal differentiation, and basal media without growth factors served as a negative control.
Mitogen-free test media with a positive control for neuronal differentiation was used, and basal media without growth factors served as a negative control.
as §1
Human neural stem cells (hNSCs) were isolated and grown in monolayer culture, plated, treated with varying concentrations of a 5-HT3 antagonist and stained with TUJ-1 antibody, as described above. Mitogen-free test media with a positive control for neuronal differentiation was used along with basal media without growth factors as a negative control.
Human neural stem cells (hNSCs) were isolated and grown in monolayer culture, plated, treated with varying concentrations of a 5-HT4 agonist and stained with TUJ-1 antibody, as described above. Mitogen-free test media with a positive control for neuronal differentiation was used along with basal media without growth factors as a negative control.
The presence of synergy was determined by use of a combination index (CI). […] The CI is a quantitative measure of the nature of drug interactions, comparing the EC50's of two compounds, when each is assayed alone, to the EC50 of each compound when assayed in combination. The combination index (CI) is equal to the following formula: […]
where C1 and C2 are the concentrations of a first and a second compound, respectively, resulting in 50% activity in neuronal differentiation when assayed in combination; and IC1 and IC2 are the concentrations of each compound resulting in 50% activity when assayed independently.

Series [5] concerns Male F344 rats. The experiment in a line: Novelty suppressed feeding (NSF) depression assay. It counts as in vivo, rat. Particulars: 1x per day for 21 days. As for the experimental part:
Twenty-four hours prior to behavioral testing, all food is removed from the home cage. At the time of testing a single pellet is placed in the center of a novel arena. Animals are placed in the corner of the arena and latency to eat the pellet is recorded. […] Animals receive compound daily for 21 days and testing is performed on day 21. A decreased latency to eat the food pellet is indicative of both neurogenesis and antidepressant activity.
Twenty-four hours prior to behavioral testing, all food is removed from the home cage. At the time of testing a single pellet is placed in the center of a novel arena. Animals are placed in the corner of the arena and the latency (in time) to eat the pellet is recorded. […] Animals receive compound daily for 21 days and testing is performed on day 21. A decreased latency to eat the food pellet is indicative of both neurogenesis and antidepressant activity.

Series [6] concerns granule cell layer of the dentate gyrus. The experiment in a line: In vivo neurogenesis (BrdU positive cell counts). Also on record: species or system rat. Particulars: 0.5 mg/kg buspirone, 3.0 mg/kg melatonin or both, i.p., 1x per day for 28 days. How it is done: BrdU was administered once daily between days 9 and 14 (100 mg/kg/day, i.p., n=12 per dose group). […] Data are presented as percent change in BrdU positive cells per cubic mm dentate gyrus.

The term EC50 denotes the concentration giving half of the maximal effect. Turning to `O=C1CC2(CCCC2)CC(=O)N1CCCCN1CCN(c2ncccn2)CC1` [buspirone], the EC50 in series [1] (Homo sapiens, Neural stem cell, agent alone, hNSC) was determined as 5.7 µM; in series [4], 9.4 µM. The maximum astrocyte differentiation in series [1] (percent of positive control, agent alone or in combination) is 60%. For the same molecule, the mean body weight entry in series [2] is recorded as “dose-dependent decrease in mean body weight”. For the same molecule, the “preference for the novel object (visits, time spent)” value in series [3] is “did not increase preference for the novel object; also recorded: did not demonstrate a significant effect on cognition”. The “latency to eat the food pellet (percent baseline)” value in series [5] (0.5 mg/kg buspirone, 3.0 mg/kg melatonin or both, i.p.) is “did not significantly reduce the latency to eat the food pellet”. Further, in series [5] (buspirone 0.5 and 5.0 mg/kg i.p.), the “latency to eat the food pellet” value was “did not significantly reduce the latency to eat the food pellet; also recorded: did not demonstrate a significant effect on novelty suppressed feeding”. Moreover, in series [6], the “BrdU positive cells per cubic mm dentate gyrus (percent change)” value is “did not significantly change the number of BrdU positive cells”.
